Source: US9326973B2, “Hepatitis C virus inhibitors” (priority 2012, dated 2016)

system: HCV replicon, genotype 1a L31V variant with leucine 31 changed to valine in the NS5A protein; experiment: not given; format: cell-based, HCV genotype 1a; details: test compound titrated in combination with a fixed 200 nM compound N47; genotype 1a L31V replicon

Row | Structure (SMILES) | Fold-Synergistic G-1a (L31V) [Fold]
1 | COC(=O)N[C@@H](C(=O)N1CCC[C@H]1c1ncc(-c2ccc(-c3ccc(-c4cnc([C@@H]5CCCN5C(=O)[C@H](NC(=O)OC)c5ccccc5)[nH]4)cc3)cc2)[nH]1)c1ccccc1 | <10

system: HCV replicon, genotype 1a Y93H variant with tyrosine 93 changed to histidine in the NS5A protein; experiment: not given; format: cell-based, HCV genotype 1a; details: test compound titrated in combination with a fixed 200 nM compound N47; genotype 1a Y93H replicon
Protocol: Combinations can be examined for synergistic activity using a variety of putative NS5A-targeting compounds and a variety of test compounds. […] The test compound can be chosen from compounds exemplified below, which were prepared by methods known in the art, or from others disclosed in the literature.
Similarly, BMS-790052 can be tested singly and in combination with a fixed amount of compound N47 in the HCV replicon cell based assay consisting of the genotype 1a Y93H variant with tyrosine 93 changed to histidine in the NS5A protein.

Row | Structure (SMILES) | Fold-Synergistic G-1a (Y93H) [Fold]
2 | CN(C)[C@@H](C(=O)N1CCCC[C@H]1c1ncc(-c2ccc(-c3ccc(-c4cnc([C@@H]5CCCCN5C(=O)[C@@H](c5ccccc5)N(C)C)[nH]4)cc3)cc2)[nH]1)c1ccccc1 | <10
3 | COC(=O)N[C@H](C(=O)N1CCC[C@H]1c1nc2cc(C#Cc3ccc4[nH]c([C@@H]5CCCN5C(=O)[C@@H](NC(=O)OC)C(C)C)nc4c3)ccc2[nH]1)C(C)C | <10

system: HCV replicon, genotype-1a variant with glutamine 30 changed to glutamate in the NS5A protein; experiment: microbe, parasite or virus in culture; format: cell-based, HCV genotype 1a; details: HCV replicon genotype 1a Q30E (Q→E) variant; test compound titrated with an NS5A-targeting compound (BMS-790052 fixed at 200 nM); ranking of synergist activity
How it was run: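 Synergy was assessed by combining several fixed amounts of an NS5A-targeting compound with a titration of the second compound of interest.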

Row | Structure (SMILES) | Fold-Synergistic 1a (Q30E) [fold]
4 | CC1(C(=O)N[C@H](c2nc(-c3ccc(-c4ccc(-c5c[nH]c([C@@H](NC(=O)C6(C)OCC(F)(F)CO6)C(C)(C)C)n5)cc4)cc3)c[nH]2)C(C)(C)C)OCC(F)(F)CO1 [Compound L-87] | >100
5 | Cc1cc(-c2ccc(-c3c[nH]c([C@@H](NC(=O)C4CC(F)(F)C4)C(C)C)n3)cc2)ccc1-c1c[nH]c([C@@H](NC(=O)C2CC(F)(F)C2)C(C)C)n1 [Compound N-78] | >100
6 | CC(C)(C)[C@H](NC(=O)C1(N2CCC(F)(F)CC2)COC1)c1nc(-c2ccc(-c3ccc(-c4c[nH]c([C@@H](NC(=O)C5(N6CCC(F)(F)CC6)COC5)C(C)(C)C)n4)cc3)cc2)c[nH]1 [Compound W-63] | >100
7 | CC(C)(C)[C@H](NC(=O)[C@@H]1C[C@@H](F)CN1C(=O)C1CC1)c1nc(-c2ccc(-c3ccc(-c4c[nH]c([C@@H](NC(=O)[C@@H]5C[C@@H](F)CN5C(=O)C5CC5)C(C)(C)C)n4)cc3)cc2)c[nH]1 [Compound W-104] | >100
8 | CC(C)(C)[C@H](NC(=O)c1ccccc1F)c1nc(-c2ccc(-c3ccc(-c4c[nH]c([C@@H](NC(=O)c5ccccc5F)C(C)(C)C)n4)c(F)c3)cc2)c[nH]1 [Compound N-95] | >100
9 | CC(C)(C)[C@H](NC(=O)[C@@H]1CCCN1CC(F)(F)F)c1nc(-c2ccc(-c3ccc(-c4c[nH]c([C@@H](NC(=O)[C@@H]5CCCN5CC(F)(F)F)C(C)(C)C)n4)cc3)cc2)c[nH]1 [Compound L-52] | >100
10 | CCN(CC)C(=O)C(=O)N[C@H](c1nc(-c2ccc(-c3ccc(-c4c[nH]c([C@@H](NC(=O)C(=O)N(CC)CC)C(C)(C)C)n4)cc3)cc2)c[nH]1)C(C)(C)C [Compound W-33] | >100
11 | O=C(N[C@H](c1nc(-c2ccc(-c3ccc(-c4c[nH]c([C@@H](NC(=O)C5CCC(F)(F)CC5)C5CC5)n4)cc3)cc2)c[nH]1)C1CC1)C1CCC(F)(F)CC1 [Compound L-90] | >100
12 | CC(C)(C)[C@H](NC(=O)C(=O)N1CC(F)(F)C1)c1nc(-c2ccc(-c3ccc(-c4c[nH]c([C@@H](NC(=O)C(=O)N5CC(F)(F)C5)C(C)(C)C)n4)cc3)cc2)c[nH]1 [Compound W-28] | >100
13 | CC(C)(C)[C@H](NC(=O)C1CCC(F)(F)CC1)c1nc(-c2ccc(-c3cnc(-c4c[nH]c([C@@H](NC(=O)C5CCC(F)(F)CC5)C(C)(C)C)n4)cn3)cc2)c[nH]1 [Compound N-104] | >100
14 | COC(=O)N[C@@H](C(=O)N[C@@H](CC(C)C)c1nc(-c2ccc(-c3ccc(-c4c[nH]c([C@H](CC(C)C)NC(=O)[C@H](NC(=O)OC)C(C)C)n4)cc3)cc2)c[nH]1)C(C)C [Compound N-29] | >10
15 | CC(C)(C)[C@H](O)C(=O)N[C@H](c1nc(-c2ccc(-c3ccc(-c4c[nH]c([C@@H](NC(=O)[C@@H](O)C(C)(C)C)C(C)(C)C)n4)cc3)cc2)c[nH]1)C(C)(C)C [Compound L-76] | >100
16 | O=C(C(c1ccccc1)c1ccccc1)N1CCC[C@H]1c1ncc(-c2ccc(-c3ccc(-c4cnc([C@@H]5CCCN5C(=O)C(c5ccccc5)c5ccccc5)[nH]4)cc3)cc2)[nH]1 [Compound S-146] | <10
17 | C[C@@H](OC(=O)NC1(C(=O)N[C@H](c2nc(-c3ccc(-c4ccc(-c5c[nH]c([C@@H](NC(=O)C6(NC(=O)O[C@H](C)C(F)(F)F)CC6)C6(C)CC6)n5)cc4)cc3)c[nH]2)C2(C)CC2)CC1)C(F)(F)F [Compound L-42] | >100
18 | CC(C)(C)[C@H](NC(=O)C1CCC(C(F)F)CC1)c1nc(-c2ccc(-c3ccc(-c4c[nH]c([C@@H](NC(=O)C5CCC(C(F)F)CC5)C(C)(C)C)n4)cc3)cc2)c[nH]1 (stereo partly shown) [Compound Y-71] | >100
19 | CC(C)(C)[C@H](NC(=O)C1(OC(=O)N2CCCCC2)CC1)c1nc(-c2ccc(-c3ccc(-c4c[nH]c([C@@H](NC(=O)C5(OC(=O)N6CCCCC6)CC5)C(C)(C)C)n4)cc3)cc2)c[nH]1 [Compound L-28] | >100
20 | CN(C)C(=O)C(C)(C)C(=O)N[C@H](c1nc(-c2ccc(-c3ccc(-c4c[nH]c([C@@H](NC(=O)C(C)(C)C(=O)N(C)C)C(C)(C)C)n4)cc3)cc2)c[nH]1)C(C)(C)C [Compound W-138] | >100

Row | Structure (SMILES) | Fold-Synergistic 1a (Q30E) [fold]
21 | COC(=O)N[C@H](C(=O)N[C@H](c1nc(-c2ccc(-c3ccc(-c4c[nH]c([C@@H](NC(=O)[C@@H](NC(=O)OC)C(C)C)C5CC5)n4)cc3)cc2)c[nH]1)C1CC1)C(C)C [Compound P-3] | >10
22 | O=C(c1ccsc1)N1CCC[C@H]1c1ncc(-c2ccc(-c3ccc(-c4cnc([C@@H]5CCCN5C(=O)c5ccsc5)[nH]4)cc3)cc2)[nH]1 [Compound S-183] | <10
23 | CC1([C@H](NC(=O)[C@@]2(C)CC(F)(F)CCO2)c2nc(-c3ccc(-c4ccc(-c5c[nH]c([C@@H](NC(=O)[C@@]6(C)CC(F)(F)CCO6)C6(C)CC6)n5)cc4)cc3)c[nH]2)CC1 [Compound Y-82] | >100
24 | CC(C)[C@H](NC(=O)c1cc(Cl)ccc1F)c1nc(-c2ccc(-c3ccc(-c4c[nH]c([C@@H](NC(=O)c5cc(Cl)ccc5F)C(C)C)n4)c(F)c3)cc2)c[nH]1 [Compound N-88] | >100
25 | O=C(C1CCCC1)N1CCC[C@H]1c1ncc(-c2ccc(-c3ccc(-c4cnc([C@@H]5CCCN5C(=O)C5CCCC5)[nH]4)cc3)cc2)[nH]1 [Compound S-164] | <10
26 | CN(C)C(=O)C(=O)N[C@H](c1nc(-c2ccc(-c3ccc(-c4c[nH]c([C@@H](NC(=O)C(=O)N(C)C)C(C)(C)C)n4)cc3)cc2)c[nH]1)C(C)(C)C [Compound W-10] | >100
27 | Cc1cn(CCC(=O)N2CCC[C@H]2c2ncc(-c3ccc(-c4ccc(-c5cnc([C@@H]6CCCN6C(=O)CCn6cc(C)c7ccccc76)[nH]5)cc4)cc3)[nH]2)c2ccccc12 [Compound S-153] | >10
28 | CC(C)(C(=O)N[C@H](c1nc(-c2ccc(-c3ccc(-c4c[nH]c([C@@H](NC(=O)C(C)(C)C(=O)N5CC(O)C5)C(C)(C)C)n4)cc3)cc2)c[nH]1)C(C)(C)C)C(=O)N1CC(O)C1 [Compound W-144] | >10
29 | CC(C)(C)[C@H](NC(=O)C(C)(C)C1(O)CCCCC1)c1nc(-c2ccc(-c3ccc(-c4c[nH]c([C@@H](NC(=O)C(C)(C)C5(O)CCCCC5)C(C)(C)C)n4)cc3)cc2)c[nH]1 [Compound P-160] | >100
30 | CC(C)(C)[C@H](NC(=O)C(=O)N1CCCCCC1)c1nc(-c2ccc(-c3ccc(-c4c[nH]c([C@@H](NC(=O)C(=O)N5CCCCCC5)C(C)(C)C)n4)cc3)cc2)c[nH]1 [Compound W-32] | >100
31 | O=C(NC(c1nc(-c2ccc(-c3ccc(-c4c[nH]c(C(NC(=O)C5CCC(F)(F)CC5)C5(C(F)(F)F)CC5)n4)cc3)cc2)c[nH]1)C1(C(F)(F)F)CC1)C1CCC(F)(F)CC1 (stereo not shown) [Compound N-109B] | >100
32 | CC(=O)N1CCC(C(=O)N[C@H](c2nc(-c3ccc(-c4ccc(-c5c[nH]c([C@@H](NC(=O)C6CCN(C(C)=O)CC6)C(C)(C)C)n5)cc4)cc3)c[nH]2)C(C)(C)C)CC1 [Compound S-297] | >10
33 | O=C(CC1CCCCC1)N1CCC[C@H]1c1ncc(-c2ccc(-c3ccc(-c4cnc([C@@H]5CCCN5C(=O)CC5CCCCC5)[nH]4)cc3)cc2)[nH]1 [Compound S-168] | >10
34 | CC(C)CC(=O)N[C@H](c1nc(-c2ccc3cc(-c4ccc(-c5cnc([C@@H](NC(=O)CC(C)C)C(C)(C)C)[nH]5)cc4)ccc3c2)c[nH]1)C(C)(C)C [Compound N-9] | >10
35 | C[C@@H](OC(=O)N(C)C1(C(=O)N[C@H](c2nc(-c3ccc(-c4ccc(-c5c[nH]c([C@@H](NC(=O)C6(N(C)C(=O)O[C@H](C)C(F)(F)F)CC6)C6(C)CC6)n5)cc4)cc3)c[nH]2)C2(C)CC2)CC1)C(F)(F)F [Compound L-92] | >100
36 | CC(C)(C)[C@H](NC(=O)C(=O)c1cccs1)c1nc(-c2ccc(-c3ccc(-c4c[nH]c([C@@H](NC(=O)C(=O)c5cccs5)C(C)(C)C)n4)cc3)cc2)c[nH]1 [Compound W-19] | >100
37 | O=C(c1cccc2c1OCC2)N1CCC[C@H]1c1ncc(-c2ccc(-c3ccc(-c4cnc([C@@H]5CCCN5C(=O)c5cccc6c5OCC6)[nH]4)cc3)cc2)[nH]1 [Compound S-139] | >10
